{
  "source": "paper PMC2932657",
  "about": "(Chemistry & biology, 2010)",
  "molecular_target": "PimD (Streptomyces natalensis, UniProt Q9EW92)",
  "experiment": "UV-visible difference spectrophotometric titration",
  "format": "binding",
  "data": [
    {"smiles": "C[C@@H]1C/C=C/C=C/C=C/C=C/[C@H](O[C@@H]2O[C@H](C)[C@@H](O)[C@H](N)[C@@H]2O)C[C@@H]2O[C@](O)(C[C@@H](O)C/C=C/C=C/C(=O)O1)C[C@H](O)[C@H]2C(=O)O", "note": "[4,5-desepoxypimaricin]", "values": [
      {"measurement": "Kd", "value": 4, "unit": "µM"}
    ]}
  ]
}
